In brackets after ≈: the same amount, converted by molar mass.
Assays:
[1] = tested on: Vancomycin intermediate-resistant Staphylococcus aureus Mu50; test: In vitro infectivity assay (MIC), Exp. Ex. 2-1; type: cell-based; conditions: Gram-positive, microdilution, MIC after 24 h
Procedure: (§1) The antibacterial activities were measured based on broth dilution techniques of international standards (Clinical Laboratory Standards Institute: CLSI). The activities were shown by minimum inhibitory concentrations (MICs) determined by inoculating the above-mentioned strains at a concentration of about 10^5 […] into Mueller-Hinton broth (manufactured by Difco) containing 0.85% NaCl in 96-well microplates and incubating the plates at 35° C. for 24 hours. Measurement was carried out three times.
(§2) The antibacterial activities of the compounds of the present invention against various strains such as vancomycin-resistant enterococci (VRE), vancomycin intermediate-resistant Staphylococcus aureus (VISA), methicillin-resistant Staphylococcus aureus (MRSA), and methicillin-sensitive Staphylococcus aureus (MSSA) were examined. Of the bacteria used in MIC measurement in this test example, clinical bacteria of MRSA (OM481 strain and OM584 strain) were supplied from Okayama University Hospital (Japan). An MRSA strain N315, a vancomycin intermediate-resistant Staphylococcus aureus (VISA) strain Mu50, and a methicillin-sensitive Staphylococcus aureus (MSSA) strain FDA 209P were used as controls. Vancomycin-resistant enterococcus (VRE) strains NCTC 12201 and FN-1 were supplied from the National Institute of Infectious Disease (Japan).

[2] = tested on: Methicillin sensitive S. aureus 209P; test: In vitro infectivity assay (MIC), Exp. Ex. 2-1; type: cell-based, Staphylococcus aureus; conditions: Gram-positive, microdilution, MIC after 24 h
Procedure: as §1, §2

[3] = tested on: Methicillin-resistant S. aureus COL; test: In vitro infectivity assay (MIC), Exp. Ex. 2-1; type: cell-based, Staphylococcus aureus; conditions: Gram-positive, microdilution, MIC after 24 h
Procedure: as §1, §2

[4] = tested on: Methicillin-resistant S. aureus N315; test: In vitro infectivity assay (MIC), Exp. Ex. 2-1; type: cell-based, Staphylococcus aureus; conditions: Gram-positive, microdilution, MIC after 24 h
Procedure: as §1, §2

[5] = tested on: Methicillin-resistant S. aureus OM481; test: In vitro infectivity assay (MIC), Exp. Ex. 2-1; type: cell-based, Staphylococcus aureus; conditions: Gram-positive, microdilution, MIC after 24 h
Procedure: as §1, §2

[6] = tested on: Methicillin-resistant S. aureus OM584; test: In vitro infectivity assay (MIC), Exp. Ex. 2-1; type: cell-based, Staphylococcus aureus; conditions: Gram-positive, microdilution, MIC after 24 h
Procedure: as §1, §2

Escherichia coli K-12 = test: Antibacterial activity (MIC) against Gram-negative strains, microdilution; type: cell-based; conditions: for MIC (Gram-nagative) K-12: MIC after 24 h
Procedure: as §1

[7] = tested on: Pseodomonas aeruginosa PAOI; test: as above; type: cell-based; conditions: MIC after 24 h
Procedure: as §1

[8] = tested on: Vancomycin-resistant enterococci FN-1; test: In vitro infectivity assay (MIC), Exp. Ex. 2-1; type: cell-based; conditions: Gram-positive; microdilution, MIC after 24 h
Procedure: as §1, §2

[9] = tested on: Vancomycin-resistant enterococci NCTC 12201; test: In vitro infectivity assay (MIC), Exp. Ex. 2-1; type: cell-based; conditions: Gram-positive; microdilution, MIC after 24 h
Procedure: as §1, §2

[10] = tested on: Streptococcus pneumoniae R6; test: In vitro infectivity assay (MIC), Exp. Ex. 2-1; type: cell-based; conditions: Gram-positive; microdilution, MIC after 24 h
E. coli DNA gyrase = target: T1, E. coli DNA gyrase (Escherichia coli, UniProt P0AES4+P0AES6); test: DNA gyrase inhibition (supercoiling kit), Exp. Ex. 2-2; type: biochemical; conditions: supercoiling activity, 37° C., 30 minutes; read-out: IC50 (E. coli DNA gyrase inhibitions)
T1 construct: purchased John Innes Enterprises #K0001
T1 sequence (P0AES4 whole entry, one chain of several): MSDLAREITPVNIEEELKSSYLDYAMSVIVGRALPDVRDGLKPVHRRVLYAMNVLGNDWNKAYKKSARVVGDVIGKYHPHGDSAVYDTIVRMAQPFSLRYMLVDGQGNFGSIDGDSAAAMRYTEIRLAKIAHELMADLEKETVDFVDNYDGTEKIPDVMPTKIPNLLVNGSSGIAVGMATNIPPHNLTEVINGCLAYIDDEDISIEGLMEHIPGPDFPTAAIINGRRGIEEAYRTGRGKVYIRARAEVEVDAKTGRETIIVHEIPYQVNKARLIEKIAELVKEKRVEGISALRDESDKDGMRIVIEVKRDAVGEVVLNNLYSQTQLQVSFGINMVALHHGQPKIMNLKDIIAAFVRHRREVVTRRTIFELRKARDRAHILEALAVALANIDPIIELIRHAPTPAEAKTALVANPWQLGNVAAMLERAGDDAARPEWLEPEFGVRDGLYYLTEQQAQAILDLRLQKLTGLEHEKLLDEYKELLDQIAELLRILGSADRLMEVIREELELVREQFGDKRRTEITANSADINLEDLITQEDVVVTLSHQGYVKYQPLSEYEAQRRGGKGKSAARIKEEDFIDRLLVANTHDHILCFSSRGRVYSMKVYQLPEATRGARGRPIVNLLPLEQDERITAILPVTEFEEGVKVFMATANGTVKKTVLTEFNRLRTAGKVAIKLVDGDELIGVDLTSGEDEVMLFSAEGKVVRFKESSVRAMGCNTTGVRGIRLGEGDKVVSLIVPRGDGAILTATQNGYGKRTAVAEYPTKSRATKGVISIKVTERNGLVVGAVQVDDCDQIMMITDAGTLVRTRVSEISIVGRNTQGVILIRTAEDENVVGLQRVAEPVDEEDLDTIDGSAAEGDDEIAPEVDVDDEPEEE
Procedure: As a kit for measurement of DNA gyrase of Escherichia coli, a product purchased from John Innes Enterprises (Gyrase Supercoiling assay kit #K0001) was used. Relaxed DNA was modified with gyrase into supercoiled DNA, and reaction products were separated by electrophoresis depending on the sizes of the molecular weights to examine anti-gyrase effects (IC50). 1 unit (1 U) of DNA gyrase and […] of relaxed pBR322 DNA were added to […] of the reaction solution, and the mixture was allowed to react at 37° C. for 30 minutes in the presence of 35 mM Tris-HCl (pH 7.5), 24 mM KCl, 4 mM MgCl2, 2 mM DTT, 1.8 mM spermidine, 1 mM ATP, 6.5% (w/v) glycerol, and 0.1 mg/ml BSA. The reactions were stopped using […] of a reaction stop solution (40% sucrose, 100 mM Tris-HCl (pH 7.5), 1 mM EDTA, 0.5 mg/ml bromophenol blue).

[11] = target: T2, Escherichia coli Topoisomerase IV (Escherichia coli, UniProt P0AFI2+P20083); test: Topoisomerase IV inhibition (decatenation kit), Exp. Ex. 2-3; type: biochemical; conditions: decatenation of kDNA, 37° C., 30 minutes; read-out: IC50 (E. coli topoisomerase IV inhibitions)
T2 construct: purchased John Innes Enterprises
T2 sequence (P20083 whole entry): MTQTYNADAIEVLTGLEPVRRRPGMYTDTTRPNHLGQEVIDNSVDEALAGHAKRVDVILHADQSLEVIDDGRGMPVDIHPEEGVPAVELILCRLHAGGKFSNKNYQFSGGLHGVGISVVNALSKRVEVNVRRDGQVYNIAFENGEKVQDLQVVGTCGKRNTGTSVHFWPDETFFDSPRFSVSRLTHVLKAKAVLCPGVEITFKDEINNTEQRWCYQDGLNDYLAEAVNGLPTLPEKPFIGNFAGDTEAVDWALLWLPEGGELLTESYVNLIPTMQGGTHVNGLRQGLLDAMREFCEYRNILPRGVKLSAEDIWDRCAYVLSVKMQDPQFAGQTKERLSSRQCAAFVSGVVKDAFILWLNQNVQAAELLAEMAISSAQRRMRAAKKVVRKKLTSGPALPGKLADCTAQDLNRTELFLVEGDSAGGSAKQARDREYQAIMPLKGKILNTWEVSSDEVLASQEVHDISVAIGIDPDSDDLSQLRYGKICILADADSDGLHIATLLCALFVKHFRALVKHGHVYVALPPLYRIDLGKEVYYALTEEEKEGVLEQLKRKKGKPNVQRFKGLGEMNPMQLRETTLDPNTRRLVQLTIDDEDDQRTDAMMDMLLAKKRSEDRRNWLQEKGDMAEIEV
T2 sequence (P0AFI2 whole entry): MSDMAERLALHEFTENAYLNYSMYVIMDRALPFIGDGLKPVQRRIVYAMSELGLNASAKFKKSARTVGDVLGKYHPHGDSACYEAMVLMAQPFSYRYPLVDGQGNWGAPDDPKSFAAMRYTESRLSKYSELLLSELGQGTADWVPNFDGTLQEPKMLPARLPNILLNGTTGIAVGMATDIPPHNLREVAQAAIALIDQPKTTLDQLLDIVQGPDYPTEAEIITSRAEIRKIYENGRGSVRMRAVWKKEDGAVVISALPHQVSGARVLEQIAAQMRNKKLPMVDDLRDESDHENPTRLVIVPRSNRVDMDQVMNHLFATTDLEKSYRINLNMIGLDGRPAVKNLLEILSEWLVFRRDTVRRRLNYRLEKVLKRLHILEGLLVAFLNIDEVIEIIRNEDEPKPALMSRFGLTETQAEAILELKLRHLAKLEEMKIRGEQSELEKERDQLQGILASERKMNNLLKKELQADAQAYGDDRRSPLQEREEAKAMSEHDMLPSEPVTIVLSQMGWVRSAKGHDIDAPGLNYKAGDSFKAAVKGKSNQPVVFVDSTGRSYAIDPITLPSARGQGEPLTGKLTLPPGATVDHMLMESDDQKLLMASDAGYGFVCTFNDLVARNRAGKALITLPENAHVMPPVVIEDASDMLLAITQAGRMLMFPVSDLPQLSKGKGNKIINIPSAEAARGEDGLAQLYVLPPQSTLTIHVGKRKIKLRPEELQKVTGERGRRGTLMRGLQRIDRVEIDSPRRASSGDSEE
Procedure: (§3) Staphylococcus aureus Topoisomerase IV and Escherichia coli Topoisomerase IV were purchased from John Innes Enterprises. 1 unit of topoisomerase IV was cultured with 200 ng of kinetoplast DNA (kDNA) in 30 L of a reaction solution at 37° C. for 30 minutes under the conditions of 50 mM Tris-HCl (pH 7.5) (S. aureus)/50 mM HEPES-KOH (pH 7.6) (E. coli), 5 mM MgCl2 (S. aureus)/5 mM magnesium acetate (E. coli), 350 mM potassium glutamate (S. aureus)/100 mM potassium glutamate (E. coli), 5 mM dithiotheri (S. aureus)/10 mM dithiotheri (E. coli), 1.5 mM ATP (S. aureus)/1 mM ATP (E. coli), and 40% (w/v) glycerol. The reactions were stopped by adding 8 L of a reaction stop solution (40% sucrose, 100 mM Tris.HCl (pH 7.5), 1 mM EDTA, 0.5 mg/ml bromophenol blue). Agarose gel (1.0%) was poured into TAE (40 mM Tris acetate, 2 mM EDTA).

[12] = target: T3, Staphylococcus aureus Topoisomerase IV (Staphylococcus aureus, UniProt P0C1S7+P0C1U9); test: as above; type: biochemical; conditions: decatenation of kDNA, 37° C., 30 minutes; read-out: IC50 (S. aureus topoisomerase IV inhibitions)
T3 construct: purchased John Innes Enterprises
T3 sequence (P0C1U9 whole entry): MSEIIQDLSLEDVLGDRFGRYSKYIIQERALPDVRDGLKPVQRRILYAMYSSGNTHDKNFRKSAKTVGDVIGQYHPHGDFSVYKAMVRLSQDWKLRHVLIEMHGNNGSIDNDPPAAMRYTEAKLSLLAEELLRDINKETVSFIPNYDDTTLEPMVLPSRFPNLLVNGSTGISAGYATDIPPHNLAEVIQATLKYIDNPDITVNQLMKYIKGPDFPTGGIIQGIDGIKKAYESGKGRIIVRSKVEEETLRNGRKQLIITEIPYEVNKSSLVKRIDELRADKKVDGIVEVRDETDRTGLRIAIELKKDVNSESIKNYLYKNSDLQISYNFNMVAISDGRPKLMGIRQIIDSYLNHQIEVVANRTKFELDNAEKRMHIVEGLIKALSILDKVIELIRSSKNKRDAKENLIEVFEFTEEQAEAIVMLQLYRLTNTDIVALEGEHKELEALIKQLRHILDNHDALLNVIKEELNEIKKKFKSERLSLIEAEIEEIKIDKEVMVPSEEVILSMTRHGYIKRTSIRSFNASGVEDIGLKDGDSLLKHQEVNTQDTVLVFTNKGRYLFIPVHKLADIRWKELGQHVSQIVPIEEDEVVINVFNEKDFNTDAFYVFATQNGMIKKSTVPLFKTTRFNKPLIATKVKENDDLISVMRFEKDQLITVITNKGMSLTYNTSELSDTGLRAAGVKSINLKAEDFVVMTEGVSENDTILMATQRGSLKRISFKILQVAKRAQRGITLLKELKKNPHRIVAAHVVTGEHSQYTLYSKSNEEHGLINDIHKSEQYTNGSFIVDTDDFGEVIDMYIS
T3 sequence (P0C1S7 whole entry): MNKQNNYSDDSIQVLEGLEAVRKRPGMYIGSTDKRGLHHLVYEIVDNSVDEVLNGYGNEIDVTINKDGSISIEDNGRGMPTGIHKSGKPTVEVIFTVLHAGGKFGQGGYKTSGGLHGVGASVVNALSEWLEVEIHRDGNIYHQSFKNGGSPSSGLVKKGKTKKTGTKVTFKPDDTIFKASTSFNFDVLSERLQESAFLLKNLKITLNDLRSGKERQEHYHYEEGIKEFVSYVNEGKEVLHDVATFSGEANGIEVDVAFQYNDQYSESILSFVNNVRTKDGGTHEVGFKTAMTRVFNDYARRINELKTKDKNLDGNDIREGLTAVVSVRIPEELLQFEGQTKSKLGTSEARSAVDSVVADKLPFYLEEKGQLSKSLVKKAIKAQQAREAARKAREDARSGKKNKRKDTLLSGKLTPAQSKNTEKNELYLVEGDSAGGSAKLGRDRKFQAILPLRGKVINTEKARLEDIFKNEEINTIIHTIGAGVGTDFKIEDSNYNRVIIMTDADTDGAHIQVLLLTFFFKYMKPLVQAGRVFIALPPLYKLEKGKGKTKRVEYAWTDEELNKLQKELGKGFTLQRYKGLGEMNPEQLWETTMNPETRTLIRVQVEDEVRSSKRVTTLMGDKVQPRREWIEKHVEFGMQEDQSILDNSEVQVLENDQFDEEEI
Procedure: as §3

Compound	MIC VISA Mu50 [1]	MIC VRE FN-1 [8]	MIC VRE NCTC 12201 [9]	MIC MSSA 209P [2]	MIC MRSA COL [3]	MIC MRSA N315 [4]	MIC MRSA OM481 [5]	MIC MRSA OM584 [6]	MIC S. Pneumoniae R6 [10]	MIC (Gram-nagative) K-12 (Escherichia coli K-12)	MIC (Gram-nagative) PAO1 [7]	IC50 (E. coli DNA gyrase)	IC50 [11]	IC50 [12]	other results
CO[C@@H]1[C@@H](OC(N)=O)[C@@H](O)[C@H](Oc2ccc3c(O)c(NC(=O)c4ccc(O)c(CC=C(C)C)c4)c(=O)oc3c2C)OC1(C)C [Novobiocin, novobiocin, reference compound]															MIC ([1]; Staphylococcus aureus, VISA, read-out: MIC VISA Mu50): 8 µg/mL (≈ 13.1 µM); MIC ([2]; Staphylococcus aureus, 209P / MSSA, read-out: MIC MSSA 209P): 0.125 µg/mL (≈ 0.204 µM); MIC ([3]; Staphylococcus aureus, MRSA): 0.25 µg/mL (≈ 0.408 µM); MIC ([4]; Staphylococcus aureus, MRSA, read-out: MIC MRSA N315): 0.125 µg/mL (≈ 0.204 µM); MIC ([5]; Staphylococcus aureus, MRSA, read-out: MIC MRSA OM481): 0.25 µg/mL (≈ 0.408 µM); MIC ([6]; Staphylococcus aureus, MRSA, read-out: MIC MRSA OM584): 0.25 µg/mL (≈ 0.408 µM); MIC (Escherichia coli K-12; K12, MIC after 24 h, read-out: MIC (Gram-nagative) K-12): 8 µg/mL (≈ 13.1 µM); MIC ([7]; read-out: MIC (Gram-nagative) PAO1): 8 µg/mL (≈ 13.1 µM)
O=C(CCCc1ccc(F)cc1)OC[C@H]1O[C@@H](Oc2c(-c3ccc(O)c(O)c3)oc3cc(O)cc(O)c3c2=O)[C@H](OC(=O)CCCc2ccc(F)cc2)[C@@H](O)[C@H]1O [Compound 14j, 2-(3′,4′-Dihydroxyphenyl)-5,7-dihydroxy-3-β-D-{2″,6″-di-O-[3′″-(4-fluorophenylbutanoyl)]}galactosyl-4H-chromen-4-one]	4 µg/mL (≈ 5.05 µM)	8 µg/mL (≈ 10.1 µM)	8 µg/mL (≈ 10.1 µM)	4 µg/mL (≈ 5.05 µM)	16 µg/mL (≈ 20.2 µM)	4 µg/mL (≈ 5.05 µM)	2 µg/mL (≈ 2.52 µM)	2 µg/mL (≈ 2.52 µM)	2 µg/mL (≈ 2.52 µM)	>128 µg/mL	>128 µg/mL	2980 nM	8960 nM	2940 nM	
O=C(Cc1ccc(F)cc1)OC[C@H]1O[C@@H](Oc2c(-c3ccc(O)c(O)c3)oc3cc(O)cc(O)c3c2=O)[C@H](OC(=O)Cc2ccc(F)cc2)[C@@H](O)[C@H]1O [Compound 14e, 2-(3′,4′-Dihydroxyphenyl)-5,7-dihydroxy-3-β-D-[2″,6″-di-O-(4-fluorophenylacetyl)]galactosyl-4H-chromen-4-one]	1 µg/mL (≈ 1.36 µM)	0.5 µg/mL (≈ 0.679 µM)	0.5 µg/mL (≈ 0.679 µM)	1 µg/mL (≈ 1.36 µM)	8 µg/mL (≈ 10.9 µM)	1 µg/mL (≈ 1.36 µM)	1 µg/mL (≈ 1.36 µM)	1 µg/mL (≈ 1.36 µM)	0.5 µg/mL (≈ 0.679 µM)	>128 µg/mL	>128 µg/mL	1050 nM	7210 nM	460 nM	
CCOc1ccc(CCC(=O)OC[C@H]2O[C@@H](Oc3c(-c4ccc(O)c(O)c4)oc4cc(O)cc(O)c4c3=O)[C@H](OC(=O)CCc3ccc(OCC)cc3)[C@@H](O)[C@H]2O)cc1 [Compound 14g, 2-(3′,4′-Dihydroxyphenyl)-5,7-dihydroxy-3-β-D-{2″,6″-di-O-[3′″-(4-ethoxyphenylpropanoyl)]}galactosyl-4H-chromen-4-one]	1 µg/mL (≈ 1.22 µM)	2 µg/mL (≈ 2.45 µM)	2 µg/mL (≈ 2.45 µM)	2 µg/mL (≈ 2.45 µM)	4 µg/mL (≈ 4.9 µM)	2 µg/mL (≈ 2.45 µM)	1 µg/mL (≈ 1.22 µM)	1 µg/mL (≈ 1.22 µM)	8 µg/mL (≈ 9.79 µM)	>128 µg/mL	>128 µg/mL	5390 nM	> 12000 nM	2990 nM	
CC(=O)OC[C@H]1O[C@@H](Oc2c(-c3ccc(O)c(O)c3)oc3cc(O)cc(O)c3c2=O)[C@H](OC(C)=O)[C@@H](OC(C)=O)[C@H]1OC(C)=O [Compound 12, 2-(3′,4′-Dihydroxyphenyl)-5,7-dihydroxy-3-β-D-tetraacetylgalactosyl-4H-chromen-4-one]	128 µg/mL (≈ 202 µM)	64 µg/mL (≈ 101 µM)	64 µg/mL (≈ 101 µM)	128 µg/mL (≈ 202 µM)	>128 µg/mL	128 µg/mL (≈ 202 µM)	128 µg/mL (≈ 202 µM)	128 µg/mL (≈ 202 µM)	128 µg/mL (≈ 202 µM)	>128 µg/mL	>128 µg/mL				
Cc1ccc(CCC(=O)OC[C@H]2O[C@@H](Oc3c(-c4ccc(O)c(O)c4)oc4cc(O)cc(O)c4c3=O)[C@H](OC(=O)CCc3ccc(C)cc3)[C@@H](O)[C@H]2O)cc1 [Compound 14h, 2-(3′,4′-Dihydroxyphenyl)-5,7-dihydroxy-3-β-D-{2″,6″-di-O-[3′″-(4-methylphenylpropanoyl)]}galactosyl-4H-chromen-4-one]	0.5 µg/mL (≈ 0.661 µM)	0.5 µg/mL (≈ 0.661 µM)	0.5 µg/mL (≈ 0.661 µM)	0.25 µg/mL (≈ 0.33 µM)	1 µg/mL (≈ 1.32 µM)	0.25 µg/mL (≈ 0.33 µM)	0.25 µg/mL (≈ 0.33 µM)	0.25 µg/mL (≈ 0.33 µM)	0.25 µg/mL (≈ 0.33 µM)	>128 µg/mL	>128 µg/mL	2090 nM	7460 nM	1490 nM	
CC(=O)OC[C@H]1O[C@@H](Oc2cc(O)c3c(=O)c(O[C@@H]4O[C@H](COC(C)=O)[C@H](OC(C)=O)[C@H](OC(C)=O)[C@H]4OC(C)=O)c(-c4ccc(O)c(O)c4)oc3c2)[C@H](OC(C)=O)[C@@H](OC(C)=O)[C@H]1OC(C)=O [Compound 5, 2-(3′,4′Dihydroxyphenyl)-5-hydroxy-3,7-di-β-D-octaacetylgalactosyl-4H-chromen-4-one]	64 µg/mL (≈ 66.5 µM)	32 µg/mL (≈ 33.2 µM)	32 µg/mL (≈ 33.2 µM)	64 µg/mL (≈ 66.5 µM)	128 µg/mL (≈ 133 µM)	64 µg/mL (≈ 66.5 µM)	32 µg/mL (≈ 33.2 µM)	32 µg/mL (≈ 33.2 µM)	64 µg/mL (≈ 66.5 µM)	>128 µg/mL	>128 µg/mL				
penicillin [reference compound]									0.5 µg/mL						
